Source: US20050250820A1, “Therapeutic modulation of PPARgamma activity” (Amgen Inc., priority 2004, published 2005)

Legend:
PPARγ = biological target: T1, PPARγ (UniProt P37231); assay: PPARγ ligand binding assay utilizing [3H]-BRL 49653 as the radioligand; details: concentration required to reduce specific binding by 50%
T1 construct: fused on or other part: GST tag fused to PPARgamma, used for capture on glutathione beads
T1 sequence (P37231 1-505): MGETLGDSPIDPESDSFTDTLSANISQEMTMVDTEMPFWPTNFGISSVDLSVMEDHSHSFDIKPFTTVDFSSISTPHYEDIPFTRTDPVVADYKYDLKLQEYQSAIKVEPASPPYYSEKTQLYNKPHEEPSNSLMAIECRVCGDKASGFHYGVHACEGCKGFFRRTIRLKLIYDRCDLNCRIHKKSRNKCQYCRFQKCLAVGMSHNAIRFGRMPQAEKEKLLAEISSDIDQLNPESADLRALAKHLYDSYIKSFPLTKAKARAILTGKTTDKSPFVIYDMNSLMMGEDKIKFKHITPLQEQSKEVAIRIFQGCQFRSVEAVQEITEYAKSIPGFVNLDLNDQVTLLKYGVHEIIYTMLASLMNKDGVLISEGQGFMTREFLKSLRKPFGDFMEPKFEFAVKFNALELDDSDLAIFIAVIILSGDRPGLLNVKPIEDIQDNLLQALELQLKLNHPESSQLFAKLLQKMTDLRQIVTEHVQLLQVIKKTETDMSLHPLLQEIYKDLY
Source text: The compounds for use according to the present invention can be evaluated for modulation of the PPARγ receptor using assays such as those described in Jiang, et al., Nature 391:82-86 (1998), Ricote, et al., Nature 391:79-82 (1998) and Lehmann, et al., J. Biol. Chem. 270(12): 12953-12956 (1995). Alternatively, the compounds for use according to the invention can be evaluated for their ability to displace radiolabeled BRL 49653 from a PPARγ-GST fusion protein as follows:
PPAR-γ-GST fusion protein (prepared according to standard procedures), [^3H]-BRL 49653 having 50 Ci/mmol specific activity, Polyfiltronics Unifilter 350 filtration plate and glutathione-Sepharose® beads (from Pharmacia: washed twice with 10× binding buffer in which BSA and DTI can be left out).
Binding buffer (10 mM Tris-HCl, pH 8.0, 50 mM KCl, 10 mM DTT, 0.02% BSA and 0.01% NP-40) is added in 80 microliter amounts to the wells of the filtration plate. The test compound is then added in 10 microliters of DMSO. The PPARy-GST fusion protein and radiolabeled BRL compound are premixed in binding buffer containing 10 mM DTT and added in 10 microliter amounts to the wells of the plate to provide final concentrations of 1 μg/well of PPAR-γ-GST fusion protein and 10 nM [^3H]-BRL 49653 compound. The plate is incubated for 15 minutes. Glutathione-agarose bead is added in 50 μL of binding buffer, and the plate is vigorously shaken for one hour. The plate is washed four times with 200 μL/well of binding buffer (without BSA and DTT). The bottom of the plate is sealed and 200 μL/well of scintillation cocktail is added. The top of the plate is then sealed and the radioactivity is determined. Formulation and Administration of the Compounds (Compositions) for Use According to the Invention

KK-Ay mice = assay: anti-diabetic efficacy in KK-Ay mice (change in serum glucose levels); type: in vivo; details: 0.018% (30 mg/kg) dietary admixture in powdered diet, change in serum glucose levels compared to untreated control animals
Experimental: Selected compounds were administered to KK-Ay mice as a 0.018% (30 mg/kg) dietary admixture in powdered diet and evaluated for anti-diabetic efficacy as described (T. Shibata, K. Matsui, K. Nagao, H. Shinkai, F. Yonemori and K. Wakitani 1999; European Journal of Pharmacology 364:211-219). The change in serum glucose levels compared to untreated control animals is exemplified in Table 39.

Row | melting point [°C] | IC50 (PPARγ) [µM] | Compound | KKAy Glucose (KK-Ay mice)
1 | 82 to 84 | < 10 | O=S(=O)(Nc1cc(Cl)c(Oc2nc3ccc(Cl)cc3s2)c(Cl)c1)c1ccc(C(F)(F)F)cc1Cl [Example 365, 2-Chloro-N-[3,5-dichloro-4-(6-chloro-benzothiazol-2-yloxy)-phenyl]-4-trifluoromethyl-benzenesulfonamide] | ++ ((++) glucose lowering >20%)
2 | 225.1 | < 1 | O=S(=O)(Nc1cc(Cl)c(Sc2cnc3ccccc3c2)c(Cl)c1)c1ccc(C(F)(F)F)cc1Cl [Example 87.3] | ++ ((++) glucose lowering >20%)
